Laboratory results published in patent US20250270246A1, “LINCOSAMIDES AND USES THEREOF” (President and Fellows of Harvard College, priority 2022, published 2025).
Where a name gives a salt, the structure may show the parent alone. Read-outs that look alike come from different tables or passages of the source.

Columns and labels:
Assay type in all cases: cell-based
[1] = test system: E. coli ATCC 25922 (HAV#006); experiment: MIC by broth microdilution (CLSI); settings: for MIC: Escherichia coli, ATCC25922, 24 h, read-out: MIC E. coli ATCC 25922
Procedure, shortened: (§1)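 Cation-adjusted Mueller-Hinton medium, Chelex 100 ion-exchange treated where P. aeruginosa was tested. Twofold series 64 down to 0.06 μg/mL, 2.5% DMSO final, 5×10^5 CFU/mL inoculum, 24 h incubation; endpoint is no visible growth.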

[2] = test system: E. coli Clinical (armA); experiment: MIC by broth microdilution (CLSI); settings: for MIC: Escherichia coli, 24 h, read-out: MIC E. coli Clinical (armA)
Procedure, shortened: as §1

[3] = test system: E. coli lptD mutant; experiment: MIC by broth microdilution (CLSI); settings: CaMHB, 24 h incubation; for MIC E. coli lptD mutant: lptD mutant / ΔlptD mutant, formate salt
Procedure, shortened: as §1

[4] = test system: E. coli ΔtolC; experiment: MIC by broth microdilution (CLSI); settings: CaMHB, 24 h incubation; for MIC: Escherichia coli, 24 h, read-out: MIC E. coli ΔtolC, ΔtolC
Procedure, shortened: as §1

[5] = test system: E. faecalis ATCC 29212 (HAV#005); experiment: MIC by broth microdilution (CLSI); settings: for MIC: Enterococcus faecalis, ATCC29212, 24 h, read-out: MIC E. faecalis ATCC 29212
Procedure, shortened: as §1

[6] = test system: K. pneumoniae JMI-991193; experiment: MIC by broth microdilution (CLSI); settings: for MIC: Klebsiella pneumoniae, JMI991193, 24 h, read-out: MIC K. pneumoniae JMI-991193
Procedure, shortened: as §1

[7] = test system: S. aureus ATCC 29213 (HAV#001); experiment: MIC by broth microdilution (CLSI); settings: for MIC: Staphylococcus aureus, ATCC29213, 24 h, read-out: MIC S. aureus ATCC 29213
Procedure, shortened: as §1

[8] = test system: S. aureus Clinical (cfr); experiment: MIC by broth microdilution (CLSI); settings: for MIC: Staphylococcus aureus, 24 h, read-out: MIC S. aureus Clinical (cfr)
Procedure, shortened: as §1

[9] = test system: S. aureus MMX 3035; experiment: MIC by broth microdilution (CLSI); settings: for MIC: Staphylococcus aureus, MMX3035, 24 h, read-out: MIC S. aureus MMX 3035
Procedure, shortened: as §1

[10] = test system: P. aeruginosa ATCC 27853 (HAV#009); experiment: MIC by broth microdilution (CLSI), Chelex 100-treated broth; settings: HAV#009, ATCC 27853, CaMHB pre-treated with Chelex 100 ion exchange resin, 24 h
Method: Minimum inhibitory concentrations (MICs) were determined by the broth microdilution method following the Clinical and Laboratory Standards Institute (CLSI) guidelines. Test organisms consisted of standard reference strains from the American Type Culture Collection (ATCC; Manassa, VA, USA) and clinical isolates obtained from JMI Laboratories Inc. (North Liberty, IA, USA), Micromyx repository (MMX; Kalamazoo, MI, USA), and Massachusetts Eye and Ear Hospital (Boston, USA). Before the start of the MIC experiment, standard and test compound stock solutions were prepared in dimethyl sulfoxide (DMSO, Aldrich D2650) at a stock concentration of 2,560 μg/mL. The compound concentration range typically employed for each experiment was 64-0.06 μg/mL (2.5% final DMSO concentration). Iboxamycin was used as a comparator in all experiments. All bacterial strains were sub-cultured on blood agar plates (tryptic soy agar with 5% sheep blood, Hardy Diagnostics) and incubated overnight at 35° C. Organisms were suspended in cation-adjusted Mueller-Hinton broth (CaMHB, BD 212322) and optical density was adjusted to 0.5 McFarland standard. Suspensions were further diluted to obtain a final inoculum of 5×10^5 CFU/mL for broth microdilution experiments. The minimum concentration of compound required to inhibit visible bacterial growth after 24 h of incubation was recorded as the MIC in μg/mL. MICs for P. aeruginosa were recorded in cation-adjusted Mueller-Hinton broth which had been pre-treated with Chelex 100 ion exchange resin according to procedures reported in Ito et al. Antimicrob Agents Chemother (2016) 60 (12), 7396-7401.

[11] = test system: E. coli HAV#038, ΔTolC; experiment: MIC by broth microdilution (CLSI); settings: Escherichia coli, 24 h, read-out: MIC E. coli HAV#038, ΔTolC
Procedure, shortened: as §1

[12] = test system: E. coli HAV#040, LptD; experiment: MIC by broth microdilution (CLSI); settings: Escherichia coli, 24 h, read-out: MIC E. coli HAV#040, LptD
Procedure, shortened: as §1

[13] = test system: E. faecium HAV#318, VRE; clinical; experiment: MIC by broth microdilution (CLSI); settings: Enterococcus faecium, CaMHB, 24 h incubation, read-out: MIC E. faecium HAV#318, VRE
Procedure, shortened: as §1

[14] = test system: K. oxytoca HAV#450; Clinical; experiment: MIC by broth microdilution (CLSI); settings: Klebsiella oxytoca, CaMHB, 24 h incubation, read-out: MIC K. oxytoca HAV#450
Procedure, shortened: as §1

[15] = test system: S. aureus HAV#016, MRSA; experiment: MIC by broth microdilution (CLSI); settings: Staphylococcus aureus, CaMHB, 24 h incubation
Procedure, shortened: as §1

[16] = test system: S. aureus HAV#202, ATCC 700699; experiment: MIC by broth microdilution (CLSI); settings: Staphylococcus aureus, ATCC700699, CaMHB, 24 h incubation
Procedure, shortened: as §1

[17] = test system: S. pneumoniae HAV#003, ATCC 49619; experiment: MIC by broth microdilution (CLSI); settings: Streptococcus pneumoniae, ATCC49619, CaMHB, 24 h incubation
Procedure, shortened: as §1

[18] = test system: S. pyogenes HAV#004, ATCC 19615; experiment: MIC by broth microdilution (CLSI); settings: Streptococcus pyogenes, ATCC19615, CaMHB, 24 h incubation
Procedure, shortened: as §1

[19] = test system: A. baumannii ATCC 19606 (HAV#010); experiment: MIC by broth microdilution (CLSI); settings: Acinetobacter baumannii, ATCC19606, 24 h, read-out: MIC A. baumannii ATCC 19606
Procedure, shortened: as §1

[20] = test system: E. faecium JMI-990536; experiment: MIC by broth microdilution (CLSI); settings: Enterococcus faecium, JMI990536, 24 h, read-out: MIC E. faecium JMI-990536
Procedure, shortened: as §1

[21] = test system: H. influenzae ATCC 49247; experiment: MIC by broth microdilution (CLSI); settings: Haemophilus influenzae, ATCC49247, 24 h, read-out: MIC H. influenzae ATCC 49247
Procedure, shortened: as §1

[22] = test system: S. pneumoniae c-ermB; experiment: MIC by broth microdilution (CLSI); settings: Streptococcus pneumoniae, 24 h, read-out: MIC S. pneumoniae c-ermB
Procedure, shortened: as §1

[23] = JMI-991193, CaMHB, 24 h incubation
[24] = HAV#001, ATCC 29213, CaMHB, 24 h incubation
[25] = Clinical (cfr), CaMHB, 24 h incubation
[26] = MMX 3035, CaMHB, 24 h incubation
[27] = HAV#006, ATCC 25922, CaMHB, 24 h incubation

Structure (SMILES) | MIC E. coli lptD mutant [3] | MIC [1, 27] | MIC [4] | MIC [7, 24] | MIC [11] | MIC [12] | MIC [13] | MIC [14] | MIC [15] | MIC [16] | MIC [17] | MIC [18] | also measured
CC(C)C[C@@H]1CCO[C@@H]2[C@H](CN[C@@H]2C(=O)N[C@@H]2C/C=C/C(CN3CCOCC3)CSC3OC2C(O)C(O)C3O)C1 (single isomer, unassigned) [FSA1608056, formate salt] | 4 µg/mL | – | – | – | – | – | – | – | – | – | – | – | MIC E. coli ATCC 25922 ([1]; HAV#006, ATCC 25922, CaMHB, 24 h incubation, formate salt): 64 µg/mL; MIC E. coli Clinical (armA) ([2]; Clinical (armA), CaMHB, 24 h incubation, formate salt): 64 µg/mL; MIC E. coli ΔtolC ([4]; ΔtolC): 16 µg/mL; MIC E. faecalis ATCC 29212 ([5]; HAV#005, ATCC 29212, CaMHB, 24 h incubation, formate salt): 4 µg/mL; MIC K. pneumoniae JMI-991193 [6, 23]: >64 µg/mL; MIC S. aureus ATCC 29213 [7, 24]: 4 µg/mL; MIC S. aureus Clinical (cfr) [8, 25]: >64 µg/mL; MIC S. aureus MMX 3035 [9, 26]: >64 µg/mL; MIC P. aeruginosa ATCC 27853 [10]: 32 µg/mL
CC(C)C[C@@H]1CCO[C@@H]2[C@H](CN[C@@H]2C(=O)N[C@@H]2C/C=C/C(CN3CCOCC3)CSC3OC2C(O)C(O)C3O)C1 (single isomer, unassigned) [FSA1608057, formate salt] | 32 µg/mL | > 64 µg/mL | 16 µg/mL | 4 µg/mL | – | – | – | – | – | – | – | – | MIC ([2]; Clinical (armA), CaMHB, 24 h incubation): > 64 µg/mL; MIC ([5]; HAV#005, ATCC 29212, CaMHB, 24 h incubation): 2 µg/mL; MIC [6, 23]: > 64 µg/mL; MIC [8, 25]: > 64 µg/mL; MIC [9, 26]: > 64 µg/mL; MIC ([10]; Pseudomonas aeruginosa, ATCC27853): 32 µg/mL
CC(C)C[C@@H]1CCO[C@@H]2[C@H](CN[C@@H]2C(=O)N[C@@H]2CC/C=C/CS[C@H]3O[C@H]2[C@H](O)[C@H](O)[C@H]3O)C1 [FSA1503054, (4S,5aS,8S,8aR)-4-isobutyl-N-((1R,8R,9R,10R,11S,12R,E)-10,11,12-trihydroxy-13-oxa-2-thiabicyclo[7.3.1]tridec-4-en-8-yl) octahydro-2H-oxepino[2,3-c]pyrrole-8-carboxamide formate salt] | – | 16 µg/mL | – | 0.125 µg/mL | 1 µg/mL | 4 µg/mL | 16 µg/mL | 32 µg/mL | 0.125 µg/mL | 8 µg/mL | ≤ 0.03 µg/mL | ≤ 0.03 µg/mL | –
CC(C)C[C@@H]1CCO[C@@H]2[C@H](CN[C@@H]2C(=O)N[C@@H]2CC/C=C\CSC3OC2C(O)C(O)C3O)C1 (stereo partly drawn) [FSA1503055, (4S,5aS,8S,8aR)-4-isobutyl-N-((1R,8R,9R,10R,11S,12R,Z)-10,11,12-trihydroxy-13-oxa-2-thiabicyclo[7.3.1]tridec-4-en-8-yl) octahydro-2H-oxepino[2,3-c]pyrrole-8-carboxamide formate salt] | – | > 64 µg/mL | – | 0.5 µg/mL | 16 µg/mL | 64 µg/mL | 4 µg/mL | > 64 µg/mL | 0.5 µg/mL | 32 µg/mL | 0.25 µg/mL | 0.125 µg/mL | –
CC(C)C[C@@H]1CCO[C@@H]2[C@H](CN[C@@H]2C(=O)N[C@@H]2CCCCCS[C@H]3O[C@H]2[C@H](O)[C@H](O)[C@H]3O)C1 [FSA1503058, (4S,5aS,8S,8aR)-4-isobutyl-N-((1R,8R,9R,10R,11S,12R)-10,11,12-trihydroxy-13-oxa-2-thiabicyclo[7.3.1]tridecan-8-yl) octahydro-2H-oxepino[2,3-c]pyrrole-8-carboxamide formate salt] | – | 16 µg/mL | – | 0.125 µg/mL | 1 µg/mL | 4 µg/mL | 2 µg/mL | 32 µg/mL | 0.125 µg/mL | 4 µg/mL | ≤ 0.03 µg/mL | ≤ 0.03 µg/mL | –
CC(C)C[C@@H]1CCO[C@@H]2[C@H](CN[C@@H]2C(=O)N[C@H]2[C@H]3O[C@H](SC[C@H](F)C/C=C\[C@H]2C)[C@H](O)[C@@H](O)[C@H]3O)C1 [FSA1609033, (4S,5aS,8S,8aR)—N-((1R,4R,8R,9R,10R,11R,12S,13R,Z)-4-fluoro-11,12,13-trihydroxy-8-methyl-14-oxa-2-thiabicyclo[8.3.1]tetradec-6-en-9-yl)-4-isobutyloctahydro-2H-oxepino[2,3-c]pyrrole-8-carboxamide formate salt] | – | – | ≤ 0.06 µg/mL | – | – | – | – | – | – | – | – | – | MIC [19]: 1 µg/mL; MIC [1]: 1 µg/mL; MIC [2]: 4 µg/mL; MIC ([3]; Escherichia coli, 24 h, read-out: MIC E. coli lptD mutant, lptD mutant / ΔlptD mutant): 0.125 µg/mL; MIC [5]: ≤ 0.06 µg/mL; MIC [20]: ≤ 0.06 µg/mL; MIC [21]: ≤ 0.06 µg/mL; MIC [6]: 2 µg/mL; MIC [7]: ≤ 0.06 µg/mL; MIC [8]: 0.25 µg/mL; MIC [9]: 0.25 µg/mL; MIC [22]: ≤ 0.03 µg/mL
